Measurements: patent US20030143731A1, “Use of heterologous transcription factors in gene therapy” (ARIAD Gene Therapeutics, Inc., priority 1995, published 2003)

Experiments:
[1] = Circulating half-life and concentration in mice; format: in vivo
Description: (§1) Rapamycin was formulated for in vivo administration by dissolution in equal parts of N,N-dimethylacetamide and a 9:1 (v:v) mixture of polyethylene glycol (average molecular weight of 400) and polyoxyethylene sorbitan monooleate. Concentrations of rapamycin, in the completed formulation, were sufficient to allow for in vivo administration of the appropriate dose in a 2.0 ml/kg injection volume. The accuracy of the dosing solutions was confirmed by HPLC analysis prior to intravenous administration into the tail veins. Some control mice, bearing no transfected HT1080 cells, received 10.0 mg/kg rapamycin. In addition, other control mice, bearing transfected cells, received only the rapamycin vehicle.
To examine the kinetics of rapamycin control of hGH production, we treated animals with a single dose of rapamycin and then measured hGH levels at different times thereafter. […] The slower decay of serum hGH relative to rapamycin could reflect the presence of higher tissue concentrations of rapamycin in the vicinity of the implanted cells. Alternatively, persistence of hGH production from the engineered cells may be enhanced by the stability of hGH mRNA.
Therefore, to ascertain the ability of this system to elevate and maintain circulating hGH concentrations, we performed an experiment in which animals received multiple doses of rapamycin at 16-hour intervals. This interval corresponds to the time required for hGH levels to peak and then decline approximately half-way. According to this regimen, rapamycin concentration is predicted to approach a steady-state trough concentration of 1.7 μg/ml after two doses. hGH levels should also approach a steady state trough concentration following the second dose. […] In particular, it is apparent that protein production is rapidly terminated upon withdrawal of drug.

[2] = test system: hGH reporter gene in transplanted transfected HT1080 cells; experiment: Rapamycin-dependent production of hGH in mice bearing transfected HT1080 cells; format: in vivo
Description: To prepare transiently transfected HT1080 cells for injection into mice (See below), cells in 100 mm dishes (2×10^6 cells/dish) were transfected by calcium phosphate precipitation for 16 hours (Gatz, C., Kaiser, A. & Wendenburg, R. , 1991,Mol. Gen. Genet. 227, 229-237) with the following DNAs: […] of ZHWT×12-CMV-hGH, […] pCGNN-ZFHD1-3FKBP, […] pCGNN-1FRB-p65(361-550) and […] pUC118. Transfected cells were rinsed 2 times with phosphate buffered saline (PBS) and given fresh medium for 5 hours. To harvest for injection, cells were removed from the dish in Hepes Buffered Saline Solution containing 10 mM EDTA, washed with PBS/0.1% BSA/0.1% glucose and resuspended in the same at a concentration of 2×10^7 cells/ml.
In Vivo Methods: Animals, husbandry, and general procedures. Male nu/nu mice were obtained from Charles River Laboratories (Wilmington, Mass.) and allowed to acclimate for five days prior to experimentation. They were housed under sterile conditions, were allowed free access to sterile food and sterile water throughout the entire experiment, and were handled with sterile techniques throughout.
To transplant transiently transfected cells into mice, 2×10^6 transfected HT1080 cells, were suspended in […] PBS/0.1% BSA/0.1% glucose buffer, and administered into four intramuscular sites (approximately […] per site) on the haunches and flanks of the animals. Control mice received equivalent volume injections of buffer alone.
as §1
Blood was collected by either anesthetizing or sacrificing mice via CO2 inhalation. Anesthetized mice were used to collect […] of blood by cardiac puncture. The mice were revived and allowed to recover for subsequent blood collections. Sacrificed mice were immediately exsanguinated. Blood samples were allowed to clot for 24 hours, at 4° C., and sera were collected following centrifugation at 1000×g for 15 minutes. Serum hGH was measured by the Boehringer Mannheim non-isotopic sandwich ELISA (Cat No. 1 585 878). […] Absorbance was read at 405 nm with a 490 nm reference wavelength on a Molecular Devices microtiter plate reader. […]

[3] = test system: SEAP target gene in HT1080 cells; experiment: Rapamycin-dependent transcriptional activation in transiently transfected cells (ZFHD1-3FKBP + 1FRB-p65 fusions, SEAP); format: cell-based, human
Description: SEAP production was not detected in cells in which one or both of the transcription factor fusion plasmids was omitted, nor was it detected in the absence of added rapamycin. When all components were present, however, SEAP secretion was detectable at rapamycin concentrations as low as 0.5 nM. […] Similar results have been obtained when the same transcription factors were used to drive rapamycin-dependent activation of an hGH reporter gene or a stably integrated version of the SEAP reporter gene made by infection with a retroviral vector. It is difficult to determine the fold activation in response to rapamycin since levels of SEAP secretion in the absence of drug are undetectable, but it is clear that in this system there is at least a 1000-fold enhancement over background levels in the absence of rapamycin.
HT1080 cells (ATCC CCL-121), derived from a human fibrosarcoma, were grown in MEM supplemented with non-essential amino acids and 10% Fetal Bovine Serum. Cells plated in 24-well dishes (Falcon, 6×10^4 cells/well) were transfected using Lipofectamine under conditions recommended by the manufacturer (GIBCO/BRL). A total of 300 ng of the following DNA was transfected into each well: 100 ng ZFHD×12-CMV-SEAP reporter gene, 2.5 ng pCGNN-ZFHD1-3FKBP or other DNA binding domain fusion, 5 ng pCGNN-1FRB-p65(361-550) or other activation domain fusion and 192.5 ng pUC118. In cases where the DNA binding domain or activation domain were omitted an equivalent amount of empty pCGNN expression vector was substituted. Following lipofection (for 5 hours) 500 μl medium containing the indicated amounts of rapamycin was added to each well. After 24 hours, medium was removed and assayed for SEAP activity as described (Spencer et al, Science 262:1019-24, 1993) using a Luminescence Spectrometer (Perkin Elmer) at 350 nm excitation and 450 nm emission. Background SEAP activity, measured from mock-transfected cells, was subtracted from each value.

[4] = test system: SEAP target gene in stably transfected HT1080 cells; experiment: Rapamycin-dependent SEAP production in stably transfected cell clone; format: cell-based, human; settings: stable clone, 100 nM rapamycin, SEAP assay length increased about 50-fold
Description: We generated stable cell lines by sequential transfection of a SEAP target gene and expression vectors for ZFHD1-3FKBP and 1FRB-p65, respectively. […] From this pool, we characterized several individual clones, many of which produced high levels of SEAP in response to rapamycin. […] In an attempt to rigorously quantitate background SEAP production and induction ratio in this clone, we performed a second set of assays in which the length of the SEAP assay was increased by a factor of approximately 50 to detect any SEAP activity in untreated cells. Under these conditions, mock transfected cells produced 47 arbitrary fluorescence units, while the transfected clone produced 54 units in the absence of rapamycin and over 90,000 units at 100 nM rapamycin. […]
To simplify the task of stable transfection, we used a bicistronic expression vector that directs the production of both ZFHD1-3FKBP and 1FRB-p65 through the use of an internal ribosome entry sequence (IRES). […] All 12 clones analyzed were inducible and had little or no basal activity. […]
HT20-6 cells, which contain the pLH-ZHWT×12-IL2-SEAP reporter gene, ZFHD1-3FKBP DNA binding domain and 1FRB-p65(361-550) activation domain stably integrated, were generated by first infecting HT1080L cells with SMTN-ZFHD1-3FKBP-packaged retrovirus and selecting in medium containing […] G418. […] Eight positive clones were analyzed by addition of rapamycin. […]

[5] = five i.v. 10.0 mg/kg doses at 16-hour intervals

Row | predicted steady-state trough concentration of rapamycin ([1]; after two doses, 10.0 mg/kg i.v. at 16-hour intervals) | half-life ([1]; nu/nu, mouse, in vivo, iv, in these animals (mice), i.v., read-out: half-life of rapamycin (converted)) | Compound | half-life of hGH clearance from the circulation ([1]; in these animals (mice)) | half-life of hGH decline after the final rapamycin dose [2, 5] | time hGH levels remained constant after the final dose [2, 5] | half-life of decay of serum hGH concentration from its peak ([2]; single i.v. dose 10.0 mg/kg) | time after treatment at which serum hGH remained detectable ([2]; single i.v. dose 10.0 mg/kg) | enhancement of SEAP over background levels in the absence of rapamycin [3] | rapamycin concentration of peak SEAP secretion ([3]; 24 hours) | lowest rapamycin concentration at which SEAP secretion was detectable ([3]; all components present, 24 hours) | SEAP production [4]
1 |  |  | hGH: human growth hormone, reporter gene product secreted by engineered cells | less than four |  |  |  |  |  |  |  | 
2 | 1.7 µg/mL | 4.6 h | CO[C@H]1C[C@@H]2CC[C@@H](C)[C@@](O)(O2)C(=O)C(=O)N2CCCC[C@H]2C(=O)O[C@H]([C@H](C)C[C@@H]2CC[C@@H](O)[C@H](OC)C2)CC(=O)[C@H](C)/C=C(\C)[C@@H](O)[C@@H](OC)C(=O)[C@H](C)C[C@H](C)/C=C/C=C/C=C/1C [rapamycin] |  | 6.8 h | 16 h | approximately 11 hours | 42 h | ≥ 1000 fold | 5 nM | 0.5 nM | over 90,000 arbitrary fluorescence units
